Results reported in patent US10683278B2 (JINAN UNIVERSITY, priority 2015, dated 2020).
Where “and” joins values, the source holds several entries; their conditions need not be identical. Equal entries are not always repeated. Where two headings read alike, the source gives them in different places.

What was measured:
[1] = In vivo pharmacokinetic and bioavailability experiments of rats; parameters: species or system SD rats; conditions: for bioavailability / AUC(0-inf) / AUC(0-t) / half-life / Cmax / clearance: Sprague-Dawley, rat, plasma; for bioavailability: po, 25 mg/kg, read-out: F (oral bioavailability); for Cmax: read-out: Cmax
Protocol: Pharmacokinetic and bioavailability experiments of rats. SD rats were administered orally (25 mg/kg) and intravenously (2.5 to 5 mg/kg) at a single dose. Animal blood samples were taken at appropriate time points after administration, heparin was added as anticoagulant, and same were centrifuged at 8000 rpm/min for 6 minutes, the supernatant was then taken and stored at −20° C. for HPLC-MS analysis. The proteins in blood samples were precipitated with acetonitrile at 12000 rpm for 10 min, and the supernatant was used for HPCL-MS analysis. Data were fit using DAS2.0 to obtain compartmental model and non-compartmental model parameters, respectively. The oral bioavailability of each compound was calculated according to AUC data.

AXL kinase = target: T1, AXL kinase (Homo sapiens, UniProt P30530); experiment: IC50 test on AXL kinase (Z′-LYTE FRET kinase activity detection); format: biochemical; conditions: for IC50: Z′-LYTE FRET peptide assay, 1 h reaction
T1 construct: purchased Invitrogen PV4803
T1 sequence (P30530 26-894): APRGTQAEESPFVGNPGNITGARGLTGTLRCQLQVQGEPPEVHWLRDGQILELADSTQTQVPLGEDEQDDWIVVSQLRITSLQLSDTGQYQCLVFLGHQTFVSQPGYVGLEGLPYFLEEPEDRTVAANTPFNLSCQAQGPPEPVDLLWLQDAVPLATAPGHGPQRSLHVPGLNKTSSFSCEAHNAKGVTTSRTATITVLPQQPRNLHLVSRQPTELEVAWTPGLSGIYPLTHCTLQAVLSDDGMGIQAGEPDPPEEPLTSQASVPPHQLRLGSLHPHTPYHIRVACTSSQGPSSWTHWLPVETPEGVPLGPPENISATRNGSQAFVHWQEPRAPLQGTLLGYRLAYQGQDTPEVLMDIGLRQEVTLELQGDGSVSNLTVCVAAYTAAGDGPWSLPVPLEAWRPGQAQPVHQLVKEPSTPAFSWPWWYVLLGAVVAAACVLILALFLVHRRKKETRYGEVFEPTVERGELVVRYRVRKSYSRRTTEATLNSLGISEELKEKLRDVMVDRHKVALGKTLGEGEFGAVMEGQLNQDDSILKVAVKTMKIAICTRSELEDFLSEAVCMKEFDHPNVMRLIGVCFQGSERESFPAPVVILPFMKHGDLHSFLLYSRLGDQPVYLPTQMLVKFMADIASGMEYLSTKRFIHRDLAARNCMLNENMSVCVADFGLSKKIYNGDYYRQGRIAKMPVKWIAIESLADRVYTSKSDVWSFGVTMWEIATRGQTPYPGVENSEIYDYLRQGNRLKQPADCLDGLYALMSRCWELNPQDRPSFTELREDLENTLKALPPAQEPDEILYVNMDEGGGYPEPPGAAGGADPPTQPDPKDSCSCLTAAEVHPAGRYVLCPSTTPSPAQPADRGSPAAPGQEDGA
Method in brief: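 Z′-LYTE FRET readout: after 1 h kinase reaction (AXL, Tyr 2 peptide, ATP, compound dilutions), a 1 h protease step cuts unphosphorylated substrate. Excitation at 400 nm, signals at 445 nm and 520 nm used to derive IC50.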

[2] = target: T2, FLT-3 kinase domain recombinant protein (Homo sapiens, UniProt P36888); experiment: Inhibition rate on FLT3 kinase (ELISA); format: biochemical; conditions: two values per compound; for inhibition at 0.01 µM / inhibition at 0.1 µM / inhibition at 1 µM: read-out: Inhibition rate (%) against receptor tyrosine kinase FLT-3
T2 construct: 50 μL FLT-3 kinase domain recombinant protein diluted with reaction buffer to initiate the reaction
T2 sequence (P36888 610-943 limits assumed): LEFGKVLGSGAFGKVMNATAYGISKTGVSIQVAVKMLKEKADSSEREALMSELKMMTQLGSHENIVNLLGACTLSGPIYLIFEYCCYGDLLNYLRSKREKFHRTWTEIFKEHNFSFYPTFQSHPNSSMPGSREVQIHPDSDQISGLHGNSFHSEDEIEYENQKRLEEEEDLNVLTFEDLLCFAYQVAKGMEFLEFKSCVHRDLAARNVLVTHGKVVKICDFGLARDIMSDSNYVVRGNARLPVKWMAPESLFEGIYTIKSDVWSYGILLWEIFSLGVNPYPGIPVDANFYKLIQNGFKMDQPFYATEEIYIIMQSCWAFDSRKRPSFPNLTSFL
Protocol: Conventional enzyme-linked immunosorbent assay (ELISA) method is used, and the specific steps are as follows
12,000 g of compounds were centrifuged for 5 min, DMSO was added to make a 10^−2M stock solution, vortexed uniformly and sonicated for 10 min for standby application, and stored at −40° C. The compounds were diluted from the stock solution with DMSO to 100 times the concentration to be tested (concentration of DMSO in the system being 1%) during the test.
1. The enzyme reaction substrate Poly (Glu, Tyr) 4:1 was diluted to 20 μg/mL with potassium-free PBS (10 mM sodium phosphate buffer, 150 mM NaCl, pH 7.2-7.4), the ELISA plate was coated with same in 125 μL/well, and reacted at 37° C. for 12-16 hours, the liquid in wells was discarded, the plate was washed three times, for 5 minutes each time, with T-PBS (potassium-free PBS with 0.1% Tween-20, 200 μL/well), and the ELISA plate was dried in an oven at 37° C. for 1-2 hours.
2. To each well were added 49 μL of ATP solution diluted with reaction buffer (50 mM HEPES pH 7.4, 50 mM MgCl2, 0.5 mM MnCl2, 0.2 mM Na3VO4, 1 mM DTT), 1 μL of compounds to be tested, and 50 μL FLT-3 kinase domain recombinant protein diluted with reaction buffer to initiate the reaction (two ATP-free control wells are required for each experiment). Subject to a shaker (100 rpm) at 37° C. and reacted for 1 hour. The liquid in wells was discarded, and the plate was washed three times with T-PBS.
(§1) 3. Antibody PY99 diluent (the antibody was diluted in 1:500 with T-PBS which contains 5 mg/mL BSA) was added in 100 μL/well, subjected same to a shaker at 37° C. and reacted for 0.5 hour. The liquid in wells was discarded, and the plate was washed three times with T-PBS.
as §1, with “4. Horseradish peroxidase labeled goat anti-mouse secondary antibody” for “3. Antibody PY99”, “1:2000” for “1:500”, “mg/ml” for “mg/mL”
5. 2 mg/ml of OPD developing solution (diluted with 0.1 M citric acid-sodium citrate buffer which contains 0.03% H2O2 (pH=5.4)) was added in 100 μL/well, and reacted at 25° C. in the dark for 1-10 minutes.
6. 2 M H2SO4 was added in 50 μL/well to stop the reaction, and the reading from the wavelength-adjustable microwell plate ELIASA VERSAmax was performed with a wavelength of 490 nm.

[3] = SD rats, Po, 25 mg/kg single dose
[4] = SD rats, iv, 5 mg/kg single dose

Compound | pharmacokinetic parameter, overall judgement ([1]; SD rats, hydrochlorides, in words) | bioavailability [1] | AUC(0-inf) [1, 3] | AUC(0-t) [1, 3] | half-life [1, 3] | Cmax [1, 3] | AUC(0-inf) [1, 4] | AUC(0-t) [1, 4] | clearance [1, 4] | half-life [1, 4] | Cmax [1, 4] | IC50 (AXL kinase) | Inhibition rate (%) against receptor tyrosine kinase FLT-3 ([2]; compound 10 nM, 0.01 µM) | inhibition at 0.01 µM ([2]; compound 10 nM) | Inhibition rate (%) against receptor tyrosine kinase FLT-3 ([2]; compound 100 nM, 0.1 µM) | inhibition at 0.1 µM ([2]; compound 100 nM) | Inhibition rate (%) against receptor tyrosine kinase FLT-3 ([2]; compound 1000 nM, 1 µM) | inhibition at 1 µM ([2]; compound 1000 nM) | inhibitory activity on AXL kinase (AXL kinase; competitive experiment with ATP, in words)
Cc1c(C(=O)Nc2ccc(Oc3ncnc4[nH]cc(-c5ccccc5)c34)c(F)c2)c(=O)c2cc(C(C)C)ccc2n1C [TL50172, N-(3-fluoro-4-(5-phenyl-7H-pyrrolo[2,3-d]pyrimidin-4-yloxy)phenyl)-6-isopropyl-1,2-dimethyl-4-oxo-1,4-dihydroquinoline-3-carboxamide] |  |  |  |  |  |  |  |  |  |  |  | 26 nM | 54.2% | 59.4% | 72.9% | 62.6% | 84.6% | 81.8% | 
Cc1c(C(=O)Nc2ccc(Oc3ncnc4[nH]cc(-c5ccccc5)c34)c(F)c2)c(=O)c2cc(C(C)(C)C)ccc2n1C [TL4800062, 6-(tert-butyl)-N-(3-fluoro-4-((5-phenyl-7H-pyrrolo[2,3-d]pyrimidin-4-yl)oxy)phenyl)-1,2-dimethyl-4-oxo-1,4-dihydroquinoline-3-carboxamide] |  |  |  |  |  |  |  |  |  |  |  | 42 nM | 44.9% | 40.5% | 65.8% | 69.5% | 79.1% | 84% | 
Cc1c(C(=O)Nc2ccc(Oc3ncnc4[nH]cc(-c5ccccc5)c34)c(F)c2)c(=O)c2cc(F)ccc2n1C [TL50087, 6-fluoro-N-(3-fluoro-4-(5-phenyl-7H-pyrrolo[2,3-d]pyrimidin-4-yloxy)phenyl)-1,2-dimethyl-4-oxo-1,4-hydroquinoline-3-carboxamide] |  |  |  |  |  |  |  |  |  |  |  | > 10000 nM | 41.8% | 46.1% | 45.8% | 47.4% | 67.2% | 84% | 
6-ethyl-N-(3-fluorophenyl-1H-pyrrolo[2,3-d]pyridin-4-yl)oxy)phenyl)-1,2-dimethyl-4-oxo-1,4-dihydroquinoline-3-carboxamide [TL4800172] |  |  |  |  |  |  |  |  |  |  |  | 29.8 nM | 63.7% and 55.0% |  | 74.9% and 67.8% |  | 85.5% and 72.0% |  | strong inhibitory activity

Second part, the compound after the results:

pharmacokinetic parameter, overall judgement ([1]; SD rats, hydrochlorides, in words) | bioavailability [1] | AUC(0-inf) [1, 3] | AUC(0-t) [1, 3] | half-life [1, 3] | Cmax [1, 3] | AUC(0-inf) [1, 4] | AUC(0-t) [1, 4] | clearance [1, 4] | half-life [1, 4] | Cmax [1, 4] | IC50 (AXL kinase) | Inhibition rate (%) against receptor tyrosine kinase FLT-3 ([2]; compound 10 nM, 0.01 µM) | inhibition at 0.01 µM ([2]; compound 10 nM) | Inhibition rate (%) against receptor tyrosine kinase FLT-3 ([2]; compound 100 nM, 0.1 µM) | inhibition at 0.1 µM ([2]; compound 100 nM) | Inhibition rate (%) against receptor tyrosine kinase FLT-3 ([2]; compound 1000 nM, 1 µM) | inhibition at 1 µM ([2]; compound 1000 nM) | inhibitory activity on AXL kinase (AXL kinase; competitive experiment with ATP, in words) | Compound
appropriate pharmacokinetic parameter | 28% | 50300 ng·h/mL | 39700 ng·h/mL | 11 h | 4090 ng/mL | 28700 ng·h/mL | 28400 ng·h/mL | 3 mL/min/kg | 4.05 h | 13300 ng/mL | 8 nM | 49.4% | 54.7% | 75.8% | 74% | 92.3% | 95.2% |  | CCc1ccc2c(c1)c(=O)c(C(=O)Nc1ccc(Oc3ncnc4cc(OCCN5CCCC5)c(OC)cc34)c(F)c1)c(C)n2C [TL4830058, 6-ethyl-N-(3-fluoro-4-((6-methoxy-7-(2-(pyrrolidin-1-yl)ethoxy)quinazolin-4-yl)oxy)phenyl)-1,2-dimethyl-4-oxo-1,4-dihydroquinoline-3-carboxamide]
 | 0.2% | 151 ng·h/mL | 98.9 ng·h/mL | 14.5 h | 7.15 ng/mL | 15200 ng·h/mL | 9780 ng·h/mL | 5.83 mL/min/kg | 15.8 h | 885 ng/mL | 38 nM | 40.0% | 52.3% | 44.5% | 53.8% | 87.0% | 92.3% |  | COc1cc2ncnc(Oc3ccc(NC(=O)c4cn(-c5ccc(F)cc5)c5cc(N6CCNCC6)c(F)cc5c4=O)cc3F)c2cc1OC [TL4830042, N-(4-(6,7-dimethoxyquinazolin-4-yloxy)-3-fluorophenyl)-6-fluoro-1-(4-fluorophenyl)-4-oxo-7-(piperazin-1-yl)-1,4-dihydroquinoline-3-carboxamide]
 |  |  |  |  |  |  |  |  |  |  | 1120 nM | 66.5% | 50.2% | 66.1% | 58.3% | 70.1% | 67.1% |  | CCc1ccc2c(c1)c(=O)c(C(=O)Nc1ccc(Oc3ncnc4[nH]cc(-c5ccccc5)c34)c(C)c1)c(C)n2C [TL4830016, 6-ethyl-12-dimethyl-N-(3-methyl-4-(5-phenyl-7H-pyrrolo[2,3-d]pyrimidin-4-yloxy)phenyl)-4-oxo-1,4-dihydroquinoline-3-carboxamide]
